Reference: ChEMBL document CHEMBL5252570, “Synthesis and biological evaluation of 2,5-disubstituted furan derivatives containing 1,3-thiazole moiety as potential α-glucosidase inhibitors” (Bioorg Med Chem Lett, 2023)
Active and inactive are the calls of the source. No cut-off for these calls is given here.

Key:
Alpha glucosidase [1] = biological target: T1, Alpha glucosidase (Homo sapiens, UniProt O43451+P10253+P14410+Q2M2H8); test: Inhibition of alpha glucosidase (unknown origin); assay type: protein assay
Alpha glucosidase [2] = biological target: T1, Alpha glucosidase; test: Inhibition of alpha glucosidase (unknown origin) at 50 uM relative to control; assay type: protein assay
Alpha glucosidase [3] = biological target: T1, Alpha glucosidase; test: Competitive inhibition of alpha glucosidase (unknown origin) using pNPG as substrate by Lineweaver-Burk plot analysis; assay type: protein assay
Alpha glucosidase [4] = biological target: T1, Alpha glucosidase; test: Inhibition of alpha glucosidase (unknown origin) using p-nitrophenyl glucopyranoside as substrate pre incubated for 10 mins followed by substrate addition and measured after 30 mins by plate reader analysis; assay type: protein assay
Alpha glucosidase [5] = biological target: T1, Alpha glucosidase; test: Potency index, […] for inhibition of alpha glucosidase (unknown origin); assay type: protein assay
Alpha glucosidase [6] = biological target: T1, Alpha glucosidase; test: Non-competitive inhibition of alpha glucosidase (unknown origin) assessed as inhibition constant using pNPG as substrate by Dixon plot analysis; assay type: protein assay
[7] = Cytotoxicity against human HEK293 cells assessed as inhibition of cell growth at 100 uM by CCK-8 assay relative to control; assay type: toxicity, cell-based; conditions: read-out: Activity
[8] = Cytotoxicity against mouse RAW264.7 cells assessed as inhibition of cell growth at 100 uM by CCK-8 assay relative to control; assay type: toxicity, cell-based; conditions: read-out: Activity
[9] = Cytotoxicity against human HepG2 cells assessed as inhibition of cell growth at 100 uM by CCK-8 assay relative to control; assay type: toxicity, cell-based; conditions: read-out: Activity

SMILES | IC50 (Alpha glucosidase [1]) | inhibition (Alpha glucosidase [2]) | also measured
COc1ccc(-c2ccc(C(=O)Sc3nccs3)o2)cc1 | 14.945 µM | 78.6% | 
O=C(Nc1nccs1)c1ccc(-c2c(F)cccc2F)o1 | 148.2 µM | 21.6% | 
Cc1nnc(SC(=O)c2ccc(-c3cccc(F)c3)o2)s1 | 0.082 µM |  | 
O=C(Nc1nccs1)c1ccc(-c2cccc(Cl)c2)o1 | 5.871 µM | 88.4% | 
N#C/N=c1\sccn1C(=O)c1ccc(-c2cccc(Cl)c2)o1 | 1.2 µM |  | 
C[C@H]1O[C@H](O[C@H]2[C@H](O)[C@@H](O)[C@@H](O[C@H]3[C@H](O)[C@@H](O)C(O)O[C@@H]3CO)O[C@@H]2CO)[C@H](O)[C@@H](O)[C@@H]1N[C@H]1C=C(CO)[C@@H](O)[C@H](O)[C@H]1O (stereo not given in full) |  | 11.5% | inhibition (Alpha glucosidase [3]): Active
O=C(Nc1nccs1)c1ccc(-c2ccc(Br)cc2)o1 | 24.125 µM | 74% | 
O=C(Nc1nccs1)c1ccc(-c2ccc(F)cc2)o1 | 20.717 µM | 67.4% | 
CC(C)(C)c1cc(/C=N/Nc2nc(-c3ccc(Cl)cc3)cs2)cc(C(C)(C)C)c1O |  |  | IC50 (Alpha glucosidase [4]): 18.23 µM
O=C(Nc1nccs1)c1ccc(-c2ccccc2)o1 | 94.033 µM | 27.3% | 
O=C(Nc1nccs1)c1ccc(-c2ccccc2F)o1 | 19.763 µM | 87.6% | 
O=C(Nc1nccs1)c1ccc(-c2ccc(F)cc2F)o1 | 77.99 µM | 34.1% | 
O=C(Nc1nccs1)c1ccc(-c2cccc(F)c2)o1 | 6.227 µM | 88.1% | 
O=C(Nn1c(-c2cc3ccccc3oc2=O)cs/c1=N\c1ccc(Cl)c(Cl)c1)c1ccccc1O |  |  | IC50 (Alpha glucosidase [4]): 0.12 µM
O=C(Sc1nncs1)c1ccc(-c2ccc(Cl)cc2)o1 | 0.186 µM |  | 
O=C(Nc1nccs1)c1ccc(-c2ccc(Cl)cc2)o1 | 14.769 µM | 69.1% | 
O=C(Nc1nccs1)c1ccc(-c2ccccc2[N+](=O)[O-])o1 | 26.943 µM | 87.7% | 
COc1ccc(-c2ccc(C(=O)Nc3nccs3)o2)cc1 | 30.94 µM | 59% | 
O=C(Nc1nccs1)c1ccc(-c2cccc([N+](=O)[O-])c2)o1 | 4.12 µM | 89.3% | inhibition (Alpha glucosidase [3]): Active; Ki (Alpha glucosidase [6]): 367.24 µM; inhibition at 100 µM [7]: 28.4%; inhibition at 100 µM [8]: 16.4%; inhibition at 100 µM [9]: 13.7%
O=C(Nc1nccs1)c1ccc(-c2ccc([N+](=O)[O-])cc2)o1 | 4.987 µM | 91.5% | 
Cc1ccc(-c2ccc(C(=O)Nc3nccs3)o2)cc1 | 26.495 µM | 64.6% | 
O=C(Sc1nccs1)c1ccc(-c2ccc([N+](=O)[O-])cc2)o1 | 8.934 µM | 85.7% | 

Now from value to compound, other results behind:

IC50 (Alpha glucosidase [1]) | inhibition (Alpha glucosidase [2]) | SMILES | also measured
6.935 µM | 86.1% | O=C(Sc1nccs1)c1ccc(-c2ccc(F)cc2F)o1 | 
 | 43.4% | O=C(Sc1nccs1)c1ccc(-c2ccc(F)cc2)o1 | 
18.33 µM | 59.3% | O=C(Nc1nccs1)c1ccc(-c2ccccc2Cl)o1 | 
5.392 µM | 87% | O=C(Sc1nccs1)c1ccc(-c2cccc(F)c2)o1 | 
1.935 µM | 88.2% | O=C(Sc1nccs1)c1ccc(-c2ccccc2Cl)o1 | 
11.43 µM | 80.4% | Cc1ccc(-c2ccc(C(=O)Sc3nccs3)o2)cc1 | 
2.223 µM | 100% | O=C(Sc1nccs1)c1ccc(-c2ccccc2)o1 | 
4.562 µM | 84.2% | O=C(Sc1nccs1)c1ccc(-c2ccc(Cl)cc2)o1 | 
5.97 µM | 83.6% | O=C(Sc1nccs1)c1ccc(-c2ccccc2F)o1 | 
0.645 µM | 98.5% | O=C(Sc1nccs1)c1ccc(-c2ccccc2[N+](=O)[O-])o1 | Ratio IC50 (Alpha glucosidase [5]): 701; Ki (Alpha glucosidase [6]): 2.04 µM; inhibition at 100 µM [7]: 53.4%; inhibition at 100 µM [8]: 38.1%; inhibition at 100 µM [9]: 47.2%
8.436 µM | 83.6% | O=C(Sc1nccs1)c1ccc(-c2c(F)cccc2F)o1 | 
5.283 µM | 89.9% | O=C(Sc1nccs1)c1ccc(-c2ccc(Br)cc2)o1 | 
 | 20.2% | O=C(Sc1nccs1)c1ccc(-c2cccc([N+](=O)[O-])c2)o1 | 
2.611 µM | 94.4% | O=C(Sc1nccs1)c1ccc(-c2cccc(Cl)c2)o1 | 
